Assays:
Neutrophil elastase = target: T1, Neutrophil elastase (Homo sapiens, UniProt P08246); assay type: tissue-based;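 note: inhibition of neutrophil elastase enzyme activity, measured with a p-nitroanilide-linked peptide substrate; in other assays of this panel Not Active means under 50% inhibition at 10 µM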
T1 sequence (P08246 whole entry): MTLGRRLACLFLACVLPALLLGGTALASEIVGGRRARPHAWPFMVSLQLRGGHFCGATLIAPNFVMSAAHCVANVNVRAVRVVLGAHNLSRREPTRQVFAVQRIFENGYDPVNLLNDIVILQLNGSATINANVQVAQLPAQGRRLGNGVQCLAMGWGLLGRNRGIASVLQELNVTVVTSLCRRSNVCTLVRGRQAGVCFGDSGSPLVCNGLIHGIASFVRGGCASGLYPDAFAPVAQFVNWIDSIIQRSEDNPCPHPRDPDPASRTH

[1] = target: T2, C-X-C chemokine receptor type 2 (Homo sapiens, UniProt P25025); assay type: cell membranes, Membrane; conditions: cho-k1; note: in other assays of this panel Not Active means under 50% inhibition at 10 µM
T2 sequence (P25025 whole entry): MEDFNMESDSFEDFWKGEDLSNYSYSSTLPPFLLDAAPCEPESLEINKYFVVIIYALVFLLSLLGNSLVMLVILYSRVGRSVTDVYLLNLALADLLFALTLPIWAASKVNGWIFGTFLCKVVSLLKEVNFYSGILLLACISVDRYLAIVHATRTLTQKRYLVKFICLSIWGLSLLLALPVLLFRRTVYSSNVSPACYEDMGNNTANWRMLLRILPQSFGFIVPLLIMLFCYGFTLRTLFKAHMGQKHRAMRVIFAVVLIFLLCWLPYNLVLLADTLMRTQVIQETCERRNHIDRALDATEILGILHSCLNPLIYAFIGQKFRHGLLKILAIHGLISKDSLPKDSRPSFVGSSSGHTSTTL

[2] = DRUGMATRIX: Interleukin IL-1 radioligand binding (ligand: [125I] interleukin 1beta); assay type: cell membranes, Membrane; conditions: nih3t3; Not Active = under 50% inhibition at 10 µM
Insulin receptor = Insulin receptor (Rattus norvegicus, UniProt P15127); assay type: cell membranes, Wistar, Liver, Membrane; note: in other assays of this panel Not Active means under 50% inhibition at 10 µM
Cannabinoid receptor 1 = Cannabinoid receptor 1 (Homo sapiens, UniProt P21554); assay type: cell membranes, Membrane; conditions: chem-1; note: in other assays of this panel Not Active means under 50% inhibition at 10 µM
[3] = target: Tyrosine-protein kinase Fyn (Homo sapiens, UniProt P06241); experiment: biochemical; assay type: cell-based, Insect cells; conditions: insect cells
[4] = target: Vascular endothelial growth factor receptor 1 (Homo sapiens, UniProt P17948); assay type: cell-based; conditions: huvec; note: in other assays of this panel Not Active means under 50% inhibition at 10 µM
[5] = DRUGMATRIX: Glutamate, NMDA, Phencyclidine radioligand binding (ligand: [3H] TCP); assay type: cell membranes, Rattus norvegicus, Wistar, Cerebral cortex, Membrane; conditions: Not Active = under 50% inhibition at 10 µM
[6] = DRUGMATRIX: Imidazoline I2, Central radioligand binding (ligand: [3H] Idazoxan); assay type: cell membranes, Rattus norvegicus, Wistar, Cerebral cortex, Membrane; conditions: Not Active = under 50% inhibition at 10 µM
[7] = target: Tyrosine-protein kinase Lck (Homo sapiens, UniProt P06239); experiment: DRUGMATRIX: Protein Tyrosine Kinase, LCK enzyme inhibition (substrate: Poly(Glu:Tyr)); assay type: cell-based, Insect cells; conditions: insect cells; Not Active = under 50% inhibition at 10 µM
[8] = DRUGMATRIX: Phorbol Ester radioligand binding (ligand: [3H] PDBu); assay type: cell membranes, Mus musculus, ICR, Brain, Membrane; conditions: Not Active = under 50% inhibition at 10 µM
[9] = target: Sigma non-opioid intracellular receptor 1 (Homo sapiens, UniProt Q99720); experiment: DRUGMATRIX: Sigma1 radioligand binding (ligand: [3H] Haloperidol); assay type: cell membranes, Jurkat, Membrane; conditions: jurkat; Not Active = under 50% inhibition at 10 µM
[10] = target: T3, C-X-C chemokine receptor type 1 (Homo sapiens, UniProt P25024); note: in other assays of this panel Not Active means under 50% inhibition at 10 µM
T3 sequence (P25024 whole entry): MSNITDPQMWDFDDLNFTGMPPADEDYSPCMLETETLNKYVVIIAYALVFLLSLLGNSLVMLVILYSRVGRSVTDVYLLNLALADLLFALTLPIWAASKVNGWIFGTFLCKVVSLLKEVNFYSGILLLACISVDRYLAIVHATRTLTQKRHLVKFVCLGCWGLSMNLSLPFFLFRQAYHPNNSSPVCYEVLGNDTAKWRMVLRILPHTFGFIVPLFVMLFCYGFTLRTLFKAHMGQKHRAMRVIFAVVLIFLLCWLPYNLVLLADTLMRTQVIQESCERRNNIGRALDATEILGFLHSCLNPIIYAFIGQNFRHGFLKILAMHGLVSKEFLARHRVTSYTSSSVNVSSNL

[11] = target: T4, 5-hydroxytryptamine receptor 2C (Homo sapiens, UniProt P28335); experiment: DRUGMATRIX: Serotonin (5-Hydroxytryptamine) 5-HT2C radioligand binding (ligand: [3H] Mesulergine); assay type: cell membranes, CHO-K1, Membrane; conditions: cho-k1; Not Active = under 50% inhibition at 10 µM
T4 sequence (P28335 whole entry): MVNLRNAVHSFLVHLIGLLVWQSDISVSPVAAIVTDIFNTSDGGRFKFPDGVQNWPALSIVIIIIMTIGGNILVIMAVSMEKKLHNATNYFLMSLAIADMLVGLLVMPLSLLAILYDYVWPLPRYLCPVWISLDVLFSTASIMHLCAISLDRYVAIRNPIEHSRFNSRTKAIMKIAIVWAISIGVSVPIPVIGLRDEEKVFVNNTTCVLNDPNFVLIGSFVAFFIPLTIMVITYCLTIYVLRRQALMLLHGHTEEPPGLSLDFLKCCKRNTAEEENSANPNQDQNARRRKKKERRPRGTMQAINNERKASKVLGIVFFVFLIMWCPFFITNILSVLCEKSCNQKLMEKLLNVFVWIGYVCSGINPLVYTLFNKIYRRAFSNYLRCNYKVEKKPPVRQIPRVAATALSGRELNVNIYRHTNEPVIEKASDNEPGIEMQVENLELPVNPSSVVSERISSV

[12] = DRUGMATRIX: Leukotriene, BLT (LTB4) radioligand binding (ligand: [3H]LTB4); assay type: cell membranes, Membrane; conditions: u-937; Not Active = under 50% inhibition at 10 µM
[13] = target: Beta-1 adrenergic receptor (Homo sapiens, UniProt P08588); experiment: DRUGMATRIX: Adrenergic beta1 radioligand binding (ligand: [125I] Cyanopindolol); assay type: cell membranes, CHO-K1, Membrane; conditions: cho-k1; Not Active = under 50% inhibition at 10 µM
[14] = target: Delta-type opioid receptor (Homo sapiens, UniProt P41143); assay type: cell membranes, HEK293, Membrane; conditions: hek293; note: in other assays of this panel Not Active means under 50% inhibition at 10 µM
[15] = target: Mitogen-activated protein kinase 14 (Homo sapiens, UniProt Q16539); design: species or system Escherichia coli

Insulin receptor, sequence (P15127 27-759 limits assumed): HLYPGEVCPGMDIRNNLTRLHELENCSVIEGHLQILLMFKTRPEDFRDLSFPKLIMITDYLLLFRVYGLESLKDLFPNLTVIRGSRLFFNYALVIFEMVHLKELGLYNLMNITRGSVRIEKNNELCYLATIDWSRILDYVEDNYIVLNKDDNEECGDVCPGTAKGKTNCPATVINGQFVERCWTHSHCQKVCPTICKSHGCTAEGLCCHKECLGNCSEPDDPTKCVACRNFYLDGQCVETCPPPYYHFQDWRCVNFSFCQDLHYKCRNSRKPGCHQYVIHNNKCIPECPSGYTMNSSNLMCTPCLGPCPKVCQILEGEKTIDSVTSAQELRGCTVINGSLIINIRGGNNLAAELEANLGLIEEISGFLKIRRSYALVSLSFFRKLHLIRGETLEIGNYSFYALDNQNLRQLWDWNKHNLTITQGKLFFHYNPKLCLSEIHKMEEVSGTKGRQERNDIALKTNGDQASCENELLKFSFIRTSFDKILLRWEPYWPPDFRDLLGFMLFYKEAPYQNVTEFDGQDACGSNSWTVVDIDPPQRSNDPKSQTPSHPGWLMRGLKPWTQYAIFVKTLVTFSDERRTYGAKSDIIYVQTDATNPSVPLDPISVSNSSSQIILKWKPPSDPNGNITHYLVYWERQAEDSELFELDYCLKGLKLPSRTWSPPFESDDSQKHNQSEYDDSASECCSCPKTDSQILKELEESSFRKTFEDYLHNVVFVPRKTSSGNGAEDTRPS
Insulin receptor, sequence (P15127 764-1383 limits assumed): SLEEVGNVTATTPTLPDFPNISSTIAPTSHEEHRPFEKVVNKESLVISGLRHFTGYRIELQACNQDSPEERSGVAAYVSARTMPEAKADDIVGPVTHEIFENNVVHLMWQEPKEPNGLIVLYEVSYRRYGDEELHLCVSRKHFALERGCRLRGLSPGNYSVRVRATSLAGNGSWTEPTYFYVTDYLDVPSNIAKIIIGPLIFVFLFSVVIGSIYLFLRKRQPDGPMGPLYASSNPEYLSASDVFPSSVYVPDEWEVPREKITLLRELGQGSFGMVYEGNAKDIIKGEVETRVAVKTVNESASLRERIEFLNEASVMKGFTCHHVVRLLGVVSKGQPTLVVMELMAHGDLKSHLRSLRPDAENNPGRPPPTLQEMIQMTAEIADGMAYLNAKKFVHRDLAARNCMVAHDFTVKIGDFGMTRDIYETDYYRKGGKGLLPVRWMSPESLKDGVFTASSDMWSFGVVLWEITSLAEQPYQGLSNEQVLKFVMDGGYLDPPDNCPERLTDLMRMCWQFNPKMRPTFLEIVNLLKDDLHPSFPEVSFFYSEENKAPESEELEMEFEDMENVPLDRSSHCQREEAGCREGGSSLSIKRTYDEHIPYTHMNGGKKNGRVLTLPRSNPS
Cannabinoid receptor 1, sequence (P21554 whole entry): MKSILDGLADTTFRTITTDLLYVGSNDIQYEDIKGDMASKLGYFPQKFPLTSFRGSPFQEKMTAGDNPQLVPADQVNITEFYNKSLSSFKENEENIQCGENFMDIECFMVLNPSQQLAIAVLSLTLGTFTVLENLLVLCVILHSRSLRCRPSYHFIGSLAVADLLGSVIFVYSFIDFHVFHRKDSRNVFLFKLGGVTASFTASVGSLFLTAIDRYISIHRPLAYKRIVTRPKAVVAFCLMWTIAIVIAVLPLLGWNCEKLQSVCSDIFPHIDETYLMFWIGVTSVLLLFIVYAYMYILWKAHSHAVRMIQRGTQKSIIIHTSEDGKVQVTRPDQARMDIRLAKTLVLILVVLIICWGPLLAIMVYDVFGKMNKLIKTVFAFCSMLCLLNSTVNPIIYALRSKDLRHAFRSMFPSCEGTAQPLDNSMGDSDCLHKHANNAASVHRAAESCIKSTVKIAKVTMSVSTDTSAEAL
Beta-1 adrenergic receptor, sequence (P08588 whole entry): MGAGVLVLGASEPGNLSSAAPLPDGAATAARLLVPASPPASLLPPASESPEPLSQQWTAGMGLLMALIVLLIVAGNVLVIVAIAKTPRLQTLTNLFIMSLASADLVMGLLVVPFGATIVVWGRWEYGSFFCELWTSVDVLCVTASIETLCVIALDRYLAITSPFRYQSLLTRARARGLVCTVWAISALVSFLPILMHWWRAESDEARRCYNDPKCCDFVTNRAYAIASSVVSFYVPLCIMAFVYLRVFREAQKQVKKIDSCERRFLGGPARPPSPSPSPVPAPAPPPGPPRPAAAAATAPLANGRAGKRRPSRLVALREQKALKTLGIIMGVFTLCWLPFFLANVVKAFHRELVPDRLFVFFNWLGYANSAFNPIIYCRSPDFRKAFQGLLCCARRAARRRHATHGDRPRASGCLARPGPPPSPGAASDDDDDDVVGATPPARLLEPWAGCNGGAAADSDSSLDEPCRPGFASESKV
Tyrosine-protein kinase Fyn, sequence (P06241 whole entry): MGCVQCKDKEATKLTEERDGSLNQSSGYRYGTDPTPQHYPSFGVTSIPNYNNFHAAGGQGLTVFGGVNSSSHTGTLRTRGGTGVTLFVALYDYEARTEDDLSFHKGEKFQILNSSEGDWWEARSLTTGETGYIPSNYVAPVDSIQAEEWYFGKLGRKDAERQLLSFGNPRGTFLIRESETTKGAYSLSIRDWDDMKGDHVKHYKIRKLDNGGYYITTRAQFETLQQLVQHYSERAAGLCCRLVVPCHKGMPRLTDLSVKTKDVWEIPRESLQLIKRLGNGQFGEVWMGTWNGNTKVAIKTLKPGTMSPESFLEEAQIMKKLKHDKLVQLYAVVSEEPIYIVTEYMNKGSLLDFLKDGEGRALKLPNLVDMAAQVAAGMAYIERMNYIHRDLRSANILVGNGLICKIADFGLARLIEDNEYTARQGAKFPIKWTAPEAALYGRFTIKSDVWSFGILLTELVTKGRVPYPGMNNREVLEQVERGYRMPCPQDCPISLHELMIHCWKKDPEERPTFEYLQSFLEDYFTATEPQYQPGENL
Delta-type opioid receptor, sequence (P41143 whole entry): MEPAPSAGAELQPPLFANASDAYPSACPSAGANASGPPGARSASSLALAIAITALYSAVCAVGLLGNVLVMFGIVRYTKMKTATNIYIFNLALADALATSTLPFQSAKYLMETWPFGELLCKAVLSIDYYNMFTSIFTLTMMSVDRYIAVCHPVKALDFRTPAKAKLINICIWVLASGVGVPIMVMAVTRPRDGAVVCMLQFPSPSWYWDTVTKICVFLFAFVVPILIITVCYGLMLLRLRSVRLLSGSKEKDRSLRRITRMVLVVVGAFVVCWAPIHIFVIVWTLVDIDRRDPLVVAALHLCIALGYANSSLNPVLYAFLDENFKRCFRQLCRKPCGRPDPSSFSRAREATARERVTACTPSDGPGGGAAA
Sigma non-opioid intracellular receptor 1, sequence (Q99720 whole entry): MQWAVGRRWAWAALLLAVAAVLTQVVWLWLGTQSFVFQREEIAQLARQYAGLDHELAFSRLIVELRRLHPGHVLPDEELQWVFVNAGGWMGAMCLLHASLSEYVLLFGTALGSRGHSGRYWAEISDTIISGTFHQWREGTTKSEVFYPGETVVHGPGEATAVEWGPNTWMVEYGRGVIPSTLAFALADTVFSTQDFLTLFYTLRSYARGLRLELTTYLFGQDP
Vascular endothelial growth factor receptor 1, sequence (P17948 whole entry): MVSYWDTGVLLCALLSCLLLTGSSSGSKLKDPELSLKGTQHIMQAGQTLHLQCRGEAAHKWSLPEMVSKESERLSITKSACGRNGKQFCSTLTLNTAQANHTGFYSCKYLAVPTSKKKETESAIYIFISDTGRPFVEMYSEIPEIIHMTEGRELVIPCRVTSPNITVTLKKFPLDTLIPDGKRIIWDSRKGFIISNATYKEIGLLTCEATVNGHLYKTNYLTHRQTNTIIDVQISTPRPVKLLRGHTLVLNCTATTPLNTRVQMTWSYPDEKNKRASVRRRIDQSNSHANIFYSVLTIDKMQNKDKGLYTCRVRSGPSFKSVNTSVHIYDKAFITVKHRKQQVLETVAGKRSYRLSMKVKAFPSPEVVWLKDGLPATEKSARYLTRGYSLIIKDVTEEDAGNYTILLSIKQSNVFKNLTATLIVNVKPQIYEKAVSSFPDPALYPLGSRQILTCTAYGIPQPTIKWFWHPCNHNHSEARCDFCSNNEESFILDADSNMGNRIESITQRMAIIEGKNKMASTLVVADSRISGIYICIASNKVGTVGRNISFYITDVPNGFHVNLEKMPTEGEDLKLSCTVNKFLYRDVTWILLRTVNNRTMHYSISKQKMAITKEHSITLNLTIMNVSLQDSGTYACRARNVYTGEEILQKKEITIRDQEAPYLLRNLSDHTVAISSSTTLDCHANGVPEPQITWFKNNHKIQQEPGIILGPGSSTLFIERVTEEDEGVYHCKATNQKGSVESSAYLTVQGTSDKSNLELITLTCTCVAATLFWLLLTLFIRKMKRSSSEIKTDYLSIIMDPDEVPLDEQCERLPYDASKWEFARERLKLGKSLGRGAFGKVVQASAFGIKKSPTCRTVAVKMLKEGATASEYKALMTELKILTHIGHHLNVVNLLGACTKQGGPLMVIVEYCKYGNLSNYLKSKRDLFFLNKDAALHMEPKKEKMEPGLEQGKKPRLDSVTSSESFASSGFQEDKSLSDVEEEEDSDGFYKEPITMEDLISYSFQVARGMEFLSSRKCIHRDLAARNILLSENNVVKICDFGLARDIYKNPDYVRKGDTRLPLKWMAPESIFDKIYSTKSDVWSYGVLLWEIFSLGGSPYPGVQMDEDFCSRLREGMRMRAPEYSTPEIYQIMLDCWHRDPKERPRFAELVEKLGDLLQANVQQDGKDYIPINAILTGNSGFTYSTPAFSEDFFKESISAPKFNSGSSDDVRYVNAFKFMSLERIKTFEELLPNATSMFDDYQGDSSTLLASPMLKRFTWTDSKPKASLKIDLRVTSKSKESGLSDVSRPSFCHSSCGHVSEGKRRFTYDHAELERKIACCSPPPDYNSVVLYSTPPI

CC(/C=C1\SC(=S)N(CC(=O)O)C1=O)=C\c1ccccc1
Not Active: IC50 (Neutrophil elastase) | IC50 [1] | IC50 [2] | Ki [2] | IC50 (Insulin receptor) | IC50 (Cannabinoid receptor 1) | IC50 [3] | IC50 [4] | IC50 [5] | Ki [5] | IC50 [6] | Ki [6] | IC50 [7] | IC50 [8] | Ki [8] | IC50 [9] | IC50 [10] | IC50 [11] | IC50 [12] | Ki [12] | IC50 [13] | IC50 [14] | IC50 [15]

CC(=O)O[C@]1(C(C)=O)CC[C@H]2[C@@H]3C=C(Cl)C4=CC(=O)CC[C@]4(C)[C@H]3CC[C@@]21C [CHLORMADINONE ACETATE]
Not Active: IC50 (Neutrophil elastase) | IC50 [1] | IC50 [2] | Ki [2] | IC50 (Insulin receptor) | IC50 (Cannabinoid receptor 1) | IC50 [3] | IC50 [4] | IC50 [5] | Ki [5] | IC50 [6] | Ki [6] | IC50 [7] | IC50 [8] | Ki [8] | IC50 [9] | IC50 [10] | IC50 [11] | IC50 [12] | Ki [12] | IC50 [13] | IC50 [14] | IC50 [15]

CN1CCC[C@H]1c1cccnc1 [NICOTINE]
Not Active: IC50 (Neutrophil elastase) | IC50 [1] | IC50 [2] | Ki [2] | IC50 (Insulin receptor) | IC50 (Cannabinoid receptor 1) | IC50 [3] | IC50 [4] | IC50 [5] | Ki [5] | IC50 [6] | Ki [6] | IC50 [7] | IC50 [8] | Ki [8] | IC50 [9] | IC50 [10] | IC50 [11] | IC50 [12] | Ki [12] | IC50 [13] | IC50 [14] | IC50 [15]

NCC[C@H](O)C(=O)N[C@@H]1C[C@H](N)[C@@H](O[C@H]2O[C@H](CN)[C@@H](O)[C@H](O)[C@H]2O)[C@H](O)[C@H]1O[C@H]1O[C@H](CO)[C@@H](O)[C@H](N)[C@H]1O [AMIKACIN]
Not Active: IC50 (Neutrophil elastase) | IC50 [1] | IC50 [2] | Ki [2] | IC50 (Insulin receptor) | IC50 (Cannabinoid receptor 1) | IC50 [3] | IC50 [4] | IC50 [5] | Ki [5] | IC50 [6] | Ki [6] | IC50 [7] | IC50 [8] | Ki [8] | IC50 [9] | IC50 [10] | IC50 [11] | IC50 [12] | Ki [12] | IC50 [13] | IC50 [14] | IC50 [15]

C=C1C(=O)O[C@@H]2C3O[C@]3(C)CC/C=C(\C)CC[C@@H]12 (stereo partly specified)
Not Active: IC50 (Neutrophil elastase) | IC50 [1] | IC50 [2] | Ki [2] | IC50 (Insulin receptor) | IC50 (Cannabinoid receptor 1) | IC50 [3] | IC50 [4] | IC50 [5] | Ki [5] | IC50 [6] | Ki [6] | IC50 [7] | IC50 [8] | Ki [8] | IC50 [9] | IC50 [10] | IC50 [11] | IC50 [12] | Ki [12] | IC50 [13] | IC50 [14] | IC50 [15]

NCC1(CC(=O)O)CCCCC1 [GABAPENTIN]
Not Active: IC50 (Neutrophil elastase) | IC50 [1] | IC50 [2] | Ki [2] | IC50 (Insulin receptor) | IC50 (Cannabinoid receptor 1) | IC50 [3] | IC50 [4] | IC50 [5] | Ki [5] | IC50 [6] | Ki [6] | IC50 [7] | IC50 [8] | Ki [8] | IC50 [9] | IC50 [10] | IC50 [11] | IC50 [12] | Ki [12] | IC50 [13] | IC50 [14] | IC50 [15]

Brc1ccccc1 [BROMOBENZENE]
Not Active: IC50 (Neutrophil elastase) | IC50 [1] | IC50 [2] | Ki [2] | IC50 (Insulin receptor) | IC50 (Cannabinoid receptor 1) | IC50 [3] | IC50 [4] | IC50 [5] | Ki [5] | IC50 [6] | Ki [6] | IC50 [7] | IC50 [8] | Ki [8] | IC50 [9] | IC50 [10] | IC50 [11] | IC50 [12] | Ki [12] | IC50 [13] | IC50 [14] | IC50 [15]

Reference: ChEMBL document CHEMBL1909046, “DrugMatrix in vitro pharmacology data”
